Measured values: US9938281B2 (Merck Sharp & Dohme Corp., priority 2012, dated 2018)

What was measured:
[1] = target: T1, PI3K-delta (Homo sapiens, UniProt O00329); assay: HTRF PI3K biochemical assay, delta isoform; details: form screened (neutral or TFA salt) given, read-out: PI3Kdelta IC50
T1 construct: purchased Upstate; Millipore 14-604

[2] = target: T2, PI3K-alpha (Homo sapiens, UniProt P42336); assay: HTRF PI3K biochemical assay, alpha isoform; details: ratio PI3K-alpha IC50 value / PI3K-delta IC50 value
T2 construct: purchased Upstate; Millipore 14-602
T2 sequence (P42336 whole entry, canonical isoform): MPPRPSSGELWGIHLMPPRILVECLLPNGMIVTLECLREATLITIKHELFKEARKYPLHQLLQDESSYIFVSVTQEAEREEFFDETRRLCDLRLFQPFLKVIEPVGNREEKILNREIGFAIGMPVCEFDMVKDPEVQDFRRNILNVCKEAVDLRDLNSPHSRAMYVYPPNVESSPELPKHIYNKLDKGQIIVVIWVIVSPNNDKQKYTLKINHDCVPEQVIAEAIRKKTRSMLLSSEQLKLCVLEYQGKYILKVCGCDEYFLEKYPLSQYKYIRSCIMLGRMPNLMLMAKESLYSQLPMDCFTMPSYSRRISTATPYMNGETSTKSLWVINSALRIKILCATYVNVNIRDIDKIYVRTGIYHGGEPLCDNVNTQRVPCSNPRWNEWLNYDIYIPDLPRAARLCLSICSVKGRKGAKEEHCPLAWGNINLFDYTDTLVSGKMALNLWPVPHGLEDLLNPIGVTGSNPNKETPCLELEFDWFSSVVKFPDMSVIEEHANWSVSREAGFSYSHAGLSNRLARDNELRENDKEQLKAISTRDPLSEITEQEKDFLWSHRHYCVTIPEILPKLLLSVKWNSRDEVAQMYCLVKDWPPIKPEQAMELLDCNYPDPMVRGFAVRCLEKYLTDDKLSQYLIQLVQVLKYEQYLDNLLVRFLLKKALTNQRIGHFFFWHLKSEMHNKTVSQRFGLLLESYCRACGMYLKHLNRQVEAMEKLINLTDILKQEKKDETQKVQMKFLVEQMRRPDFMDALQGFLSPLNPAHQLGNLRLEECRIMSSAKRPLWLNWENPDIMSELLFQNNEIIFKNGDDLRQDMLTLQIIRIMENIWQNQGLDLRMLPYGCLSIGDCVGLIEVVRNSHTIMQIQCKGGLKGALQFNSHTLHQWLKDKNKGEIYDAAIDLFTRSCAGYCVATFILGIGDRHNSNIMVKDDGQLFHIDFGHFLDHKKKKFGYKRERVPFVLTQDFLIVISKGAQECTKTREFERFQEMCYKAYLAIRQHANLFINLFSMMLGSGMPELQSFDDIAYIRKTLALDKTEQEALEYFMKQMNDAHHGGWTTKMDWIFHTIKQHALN
T2 sequence (P27986 whole entry partner, canonical isoform): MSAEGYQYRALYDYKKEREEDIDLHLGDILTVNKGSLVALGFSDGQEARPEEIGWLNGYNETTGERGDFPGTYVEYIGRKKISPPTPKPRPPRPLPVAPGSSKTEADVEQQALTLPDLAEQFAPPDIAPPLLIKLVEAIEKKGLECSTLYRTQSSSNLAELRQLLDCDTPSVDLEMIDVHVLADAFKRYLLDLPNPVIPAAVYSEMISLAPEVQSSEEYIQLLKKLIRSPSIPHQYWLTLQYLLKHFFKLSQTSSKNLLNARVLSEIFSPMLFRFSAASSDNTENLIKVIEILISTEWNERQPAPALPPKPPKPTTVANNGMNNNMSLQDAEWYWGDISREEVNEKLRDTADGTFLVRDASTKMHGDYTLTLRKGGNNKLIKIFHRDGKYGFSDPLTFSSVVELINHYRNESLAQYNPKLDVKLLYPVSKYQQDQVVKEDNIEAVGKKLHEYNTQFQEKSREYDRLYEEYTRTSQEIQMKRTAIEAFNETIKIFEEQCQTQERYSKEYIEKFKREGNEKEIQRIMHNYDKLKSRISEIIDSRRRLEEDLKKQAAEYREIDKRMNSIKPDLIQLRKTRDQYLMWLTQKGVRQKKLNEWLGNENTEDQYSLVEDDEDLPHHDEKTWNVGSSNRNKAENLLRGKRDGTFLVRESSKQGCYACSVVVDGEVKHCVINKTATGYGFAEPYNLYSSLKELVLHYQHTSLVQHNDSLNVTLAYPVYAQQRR
Text: The PI3-Kinase biochemical assays were developed to measure the intrinsic potency and compound dependent inhibition of the alpha, beta, delta, and gamma PI3K isoform enzymes. This assay was developed and further optimized from a kit produced by Upstate (Millipore catalog #33-047) and has been configured for HTS and SAR screening. Briefly, this procedure exploits the exquisite specificity and high affinity binding of enzyme reaction substrate phosphatidyl(3,4,5)triphosphate (PIP3) to the GRP1 pleckstrin homology (PH) domain to generate the signal. In the absence of PIP3, an HTRF (Homogeneous Time-Resolved Fluorescence energy transfer) complex is formed consisting of europium (Eu)-labeled anti-GST, GSTtagged GRP1-PH domain, biotin-PIP3 and streptavidin conjugated APC. The native PIP3 produced by PI3-Kinase activity disrupts in a competitive manner the biotin-PIP3 from the PH domain, resulting in the loss of energy transfer (HTRF complex) and a decrease in the signal. The format of this assay is the same for all 4 isoforms of PI3K; the differences lie in the concentration of enzyme used to achieve robust assay window. The alpha, beta, and delta assays are run at 0.5, 1, and 0.3 nM enzymes and the gamma assay is run at 5 nM enzyme. The ATP concentration is 100 uM in the alpha, beta, and delta assays and 50 uM ATP in the gamma assay. All reactions are run at 5 uM PIP2.
Compounds are serially diluted (3-fold in 100% DMSO) across a 384-well polypropylene source plated from column 3 to column 12 and column 13 to column 22, to yield 10 concentration dose response for each test compound. Columns 1, 2, 23 and 24 contain either only DMSO or pharmacological known control inhibitor.
The PI3-Kinase biochemical assay was optimized using the HTRF kit provided by Upstate (Millipore). The assay kit contains six reagents: 1) 4× Reaction Buffer; 2) native PIP2 (substrate); 3) Stop (EDTA); 4) Detection Mix A (Streptavidin-APC); 5) Detection Mix B (Eu-labeled Anti-GST plus GST-tagged PH-domain); 6) Detection Mix C.
PI3Kinase Reaction Buffer is prepared by dilution the stock 1:4 with de-ionized water. […] Enzyme addition and compound pre-incubation are initiated by the addition of 1.25 ul of PI3K (at twice its final concentration) in the 1× reaction buffer to all wells using a BioRaptor. Plates are incubated at room temperature for 15 minutes. Reactions are initiated by addition of 1.25 ul of 2× substrate solution (PIP2 and ATP in 1× reaction buffer) using BioRaptor. Plates are incubated in humidified chamber at room temperature for one hour. Reactions are quenched by addition of 0.625 uL of stop solution to all wells using the BioRaptor. The quenched reactions are then processed to detect product formation by adding 0.625 uL of Detection Solution to all wells using the BioRaptor (Detection mix C, Detection Mix A, and Detection Mix B combined together in an 18:1:1 ratio prepared 2 hours prior to use).
The loss of the HTRF signal is due to the displacement of biotinylated-PIP3 from the PH domain by the PI3K-dependent conversion of PIP2 to PIP3. This loss of signal is nonlinear with respect to both increasing product and time. This non-linear detection will impact accuracy of IC50 calculations; therefore, there is a need for a correction factor to obtain more accurate IC50 values. This correction is derived from a PIP3 standard curve run in a separate assay plate. All data were calculated using the ratio of acceptor (APC) to donor (Europium) fluorescence in each well of the assay plate. […] An IC50 was then calculated fitting the % inhibition data to the equation: % inhibition=min+(Max−min)/1+([inhibitor]/IC50)^n) where min is the % inhibition with inhibitor, max is the signal in DMSO control, and n is the Hill slope.
The determination of relative selectivity for a given compound is defined as the relative ratio of the (PI3K-alphalC50 value/PI3K-delta IC50 value).

T1 sequence (O00329 whole entry, canonical isoform): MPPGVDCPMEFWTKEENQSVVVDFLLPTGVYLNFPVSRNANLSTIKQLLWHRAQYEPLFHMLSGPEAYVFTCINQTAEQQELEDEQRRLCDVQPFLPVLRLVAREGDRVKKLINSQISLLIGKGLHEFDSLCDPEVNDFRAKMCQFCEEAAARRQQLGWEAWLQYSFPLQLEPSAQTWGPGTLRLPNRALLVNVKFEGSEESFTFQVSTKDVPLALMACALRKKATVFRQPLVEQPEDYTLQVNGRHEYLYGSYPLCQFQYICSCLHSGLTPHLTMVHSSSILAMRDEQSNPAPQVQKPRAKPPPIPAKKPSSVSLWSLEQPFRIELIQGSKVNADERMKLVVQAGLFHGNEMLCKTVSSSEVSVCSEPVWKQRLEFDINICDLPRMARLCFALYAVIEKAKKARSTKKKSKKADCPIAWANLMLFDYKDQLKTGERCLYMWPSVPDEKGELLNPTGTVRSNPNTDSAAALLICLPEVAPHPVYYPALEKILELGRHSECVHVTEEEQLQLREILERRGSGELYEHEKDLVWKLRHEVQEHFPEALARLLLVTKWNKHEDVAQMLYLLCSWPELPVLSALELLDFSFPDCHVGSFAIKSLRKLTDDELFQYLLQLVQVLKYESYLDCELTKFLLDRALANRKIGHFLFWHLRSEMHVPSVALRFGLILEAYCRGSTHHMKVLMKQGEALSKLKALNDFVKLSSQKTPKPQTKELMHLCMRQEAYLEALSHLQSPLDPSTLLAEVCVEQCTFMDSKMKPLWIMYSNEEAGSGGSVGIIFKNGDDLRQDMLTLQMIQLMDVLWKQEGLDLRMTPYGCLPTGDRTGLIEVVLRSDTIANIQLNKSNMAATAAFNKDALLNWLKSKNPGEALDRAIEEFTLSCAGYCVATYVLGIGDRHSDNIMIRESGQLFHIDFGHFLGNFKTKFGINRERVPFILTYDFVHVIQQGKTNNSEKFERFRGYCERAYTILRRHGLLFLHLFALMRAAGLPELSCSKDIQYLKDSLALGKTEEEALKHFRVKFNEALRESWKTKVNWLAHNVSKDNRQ
T1 sequence (P27986 whole entry partner, canonical isoform): as the sequence (P27986 whole entry partner, canonical isoform) above

IC50 [1] | Selectivity versus PI3Kalpha [2] | SMILES
5.3 nM | >10 | CCn1c(-c2cnc(C)nc2)nc2c(N[C@H]3CCN(C(=O)NC4CCC4)C3)ncnc21 [Compound 12-22, (3S)-N-cyclobutyl-3-{[9-ethyl-8-(2-methylpyrimidin-5-yl)-9H-purin-6-yl]amino}pyrrolidine-1-carboxamide]
13 nM | >10 | CCOC(=O)C(C)NC(=O)N1CC[C@H](Nc2ncnc3c2nc(-c2cnc(C)nc2)n3CC)C1 (stereo partly drawn) [Compound 12-18, ethyl N-{[(3S)-3-{[9-ethyl-8-(2-methylpyrimidin-5-yl)-9H-purin-6-yl]amino}pyrrolidin-1-yl]carbonyl}(D and L)-alaninate]
35 nM | >10 | CCn1c(-c2cnc(C)nc2)nc2c(N[C@H]3CC[C@H](C(=O)N4CCC4)C3)ncnc21 [Compound 5-2, N-[(1S,3S)-3-(azetidin-1-ylcarbonyl)cyclopentyl]-9-ethyl-8-(2-methylpyrimidin-5-yl)-9H-purin-6-amine]
4.5 nM | >10 | CCn1c(-c2cnc(C)nc2)nc2c(N[C@H]3CCN(C(=O)N4CCOCC4)C3)ncnc21 [Compound 12-4, 9-ethyl-8-(2-methylpyrimidin-5-yl)-N-[(3S)-1-(morpholin-4-ylcarbonyl)pyrrolidin-3-yl]-9H-purin-6-amine]
28 nM | >10 | CCC(=O)N1CCC[C@H](Nc2ncnc3c2nc(-c2cnc(C)nc2)n3CC)C1 [Compound 2-27, 9-ethyl-8-(2-methylpyrimidin-5-yl)-N-[(3S)-1-propanoylpiperidin-3-yl]-9H-purin-6-amine]
4.3 nM | >10 | CCC(=O)N1CC[C@H](Nc2ncnc3c2nc(-c2ccc4[nH]ncc4c2)n3C)C1 [Compound 3-3, (S)-1-(3-((8-(1H-indazol-5-yl)-9-methyl-9H-purin-6-yl)amino)pyrrolidin-1-yl)propan-1-one]
8.8 nM | >10 | CCn1c(-c2cnc(C)nc2)nc2c(N[C@H]3C[C@H](C(=O)OC)N(C(=O)OC(C)(C)C)C3)ncnc21 [Compound 1-17, 1-tert-butyl 2-methyl (2R,4S)-4-{[9-ethyl-8-(2-methylpyrimidin-5-yl)-9H-purin-6-yl]amino}pyrrolidine-1,2-dicarboxylate]
< 1 nM | >10 | CCC(=O)N1CC[C@H](Nc2ncnc3c2nc(-c2cnn(CC)c2C)n3CC)C1 [Compound 2-15, (S)-1-(3-((9-ethyl-8-(1-ethyl-5-methyl-1H-pyrazol-4-yl)-9H-purin-6-yl)amino)pyrrolidin-1-yl)propan-1-one]
1 nM | >10 | CCn1c(-c2cnc(OC)c(F)c2)nc2c(N[C@H]3CCN(C(=O)c4cocn4)C3)ncnc21 [Compound 3A-1, 9-ethyl-8-(5-fluoro-6-methoxypyridin-3-yl)-N-[(3S)-1-(1,3-oxazol-4-ylcarbonyl)pyrrolidin-3-yl]-9H-purin-6-amine]
1.7 nM | >10 | CCn1c(-c2cnc(C)nc2)nc2c(N[C@H]3CCN(C(=O)N4CC[C@H](F)C4)C3)ncnc21 [Compound 12-13, 9-ethyl-N-[(3S)-1-{[(3S)-3-fluoropyrrolidin-1-yl]carbonyl}pyrrolidin-3-yl]-8-(2-methylpyrimidin-5-yl)-9H-purin-6-amine]
20 nM | >10 | CCn1c(C#Cc2cncnc2)nc2c(N[C@H]3CCN(C(=O)C4CC4)C3)ncnc21 [Compound 16-2, N-[(3S)-1-(cyclopropylcarbonyl)pyrrolidin-3-yl]-9-ethyl-8-(pyrimidin-5-ylethynyl)-9H-purin-6-amine]
150 nM | >10 | CCn1c(C(C)(C)C)nc2c(N[C@H]3CCN(C(=O)C4CC4)C3)ncnc21 [Compound 7-24, 8-tert-butyl-N-[(3S)-1-(cyclopropylcarbonyl)pyrrolidin-3-yl]-9-ethyl-9H-purin-6-amine]
4.3 nM | >10 | CCC(=O)N1CC[C@H](Nc2ncnc3c2nc(-c2cnc(C)nc2)n3C)C1 [Compound 3-15, 9-methyl-8-(2-methylpyrimidin-5-yl)-N-[(3S)-1-propanoylpyrrolidin-3-yl]-9H-purin-6-amine]
< 1 nM | >10 | CCn1c(-c2cnc(C)nc2)nc2c(N[C@H]3CCN(C(=O)C4CC45CCCC5)C3)ncnc21 (single isomer, unassigned) [Compound 2-35, 9-ethyl-8-(2-methylpyrimidin-5-yl)-N-[(3S)-1-((R or S)-spiro[2.4]hept-1-ylcarbonyl)pyrrolidin-3-yl]-9H-purin-6-amine]
1.4 nM | >10 | CCn1c(-c2cnc(C)nc2)nc2c(N[C@H]3CCN(C(=O)C4CCOC(C)(C)C4)C3)ncnc21 (mixture of isomers) [Compound 2-20, ((S and R)-2,2-dimethyltetrahydro-2H-pyran-4-yl)((S)-3-((9-ethyl-8-(2-methylpyrimidin-5-yl)-9H-purin-6-yl)amino)pyrrolidin-1-yl)methanone]
3.1 nM | >10 | CCn1c(-c2cnc(C)nc2)nc2c(N[C@H]3CCN(C(=O)C4CCCO4)C3)ncnc21 (single isomer, unassigned) [Compound 2-32, 9-ethyl-8-(2-methylpyrimidin-5-yl)-N-[(3S)-1-((S or R)-tetrahydrofuran-2-ylcarbonyl)pyrrolidin-3-yl]-9H-purin-6-amine]
32 nM | >10 | CCC(=O)N1CC[C@@H](Nc2ncnc3c2nc(-c2cnn(CC)c2C)n3C)C1 [Compound 2-1, 8-(1-ethyl-5-methyl-1H-pyrazol-4-yl)-9-methyl-N-[(3R)-1-propanoylpyrrolidin-3-yl]-9H-purin-6-amine]
11.2 nM | >10 | CCn1c(-c2cnc(C)nc2)nc2c(N[C@H]3CCN(C(=O)[C@H]4C[C@@H]4C)C3)ncnc21 [Compound 2-93, 9-ethyl-N-[(3S)-1-{[(1S,2S)-2-methylcyclopropyl]carbonyl}pyrrolidin-3-yl]-8-(2-methylpyrimidin-5-yl)-9H-purin-6-amine]
710 nM | >10 | CCn1c(C(F)F)nc2c(N[C@H]3CCN(C(=O)C4CC45CCCC5)C3)ncnc21 (single isomer, unassigned) [Compound 7-20, (S or R)-8-(difluoromethyl)-9-ethyl-N-[(3S)-1-(spiro[2.4]hept-1-ylcarbonyl)pyrrolidin-3-yl]-9H-purin-6-amine]
< 1 nM | >10 | CCn1c(-c2cnc(OC)c(C)c2)nc2c(N[C@H]3CCN(C(=O)C4CCOCC4)C3)ncnc21 [Compound 3A-4, 9-ethyl-8-(6-methoxy-5-methylpyridin-3-yl)-N-[(3S)-1-(tetrahydro-2H-pyran-4-ylcarbonyl)pyrrolidin-3-yl]-9H-purin-6-amine]
10 nM | >10 | CCn1c(-c2cnc(C)nc2)nc2c(N[C@H]3CCN(C(=O)CN(C)C)C3)ncnc21 [Compound 2-31, N-{(3S)-1-[(dimethylamino)acetyl]pyrroli-din-3-yl}-9-ethyl-8-(2-methylpyrimidin-5-yl)-9H-purin-6-amine]
11 nM | >10 | CCn1c(-c2cnc(C)nc2)nc2c(N[C@H]3CCN(C(=O)C4CC45CCCC5)C3)ncnc21 (single isomer, unassigned) [Compound 2-34, 9-ethyl-8-(2-methylpyrimidin-5-yl)-N-[(3S)-1-((R or S)-spiro[2.4]hept-1-ylcarbonyl)pyrrolidin-3-yl]-9H-purin-6-amine]
120 nM | >10 | CCn1c(-c2cnc(C)nc2)nc2c(N[C@H]3CC[C@@H](C(=O)NC)C3)ncnc21 [Compound 5-7]
1.5 nM | >10 | CCn1c(-c2ccc(C(F)(F)F)cc2)nc2c(N[C@H]3CCN(C(=O)OC(C)(C)C)C3)ncnc21 [Compound 1-24, tert-butyl (3S)-3-({9-ethyl-8-[4-(trifluoromethyl)phenyl]-9H-purin-6-yl}amino)pyrrolidine-1-carboxylate]
6.7 nM | >10 | CCn1c(-c2cnc(C(C)(C)C)s2)nc2c(N(C)[C@H]3CCN(C(=O)OC(C)(C)C)C3)ncnc21 [Compound 1-7, (S)-tert-butyl 3-((8-(2-(tert-butyl)thiazol-5-yl)-9-ethyl-9H-purin-6-yl)(methyl)amino)pyrrolidine-1-carboxylate]
3.5 nM | >10 | CCCCNC(=O)N1CC[C@H](Nc2ncnc3c2nc(-c2cnc(C)nc2)n3CC)C1 [Compound 12-23, (3S)-N-butyl-3-{[9-ethyl-8-(2-methylpyrimidin-5-yl)-9H-purin-6-yl]amino}pyrrolidine-1-carboxamide]
2.1 nM | >10 | CCn1c(-c2cnc(C)nc2)nc2c(N[C@H]3CCN(C(=O)C45CC(C4)C5)C3)ncnc21 [Compound 2-77, N-[(3S)-1-(bicyclo[1.1.1]pent-1-ylcarbonyl)pyrrolidin-3-yl]-9-ethyl-8-(2-methylpyrimidin-5-yl)-9H-purin-6-amine]
2 nM | >10 | CCC(=O)N1CC[C@H](Nc2ncnc3c2nc(-c2cncc(C(C)(C)O)c2)n3C)C1 [Compound 3-34, 2-[5-(9-methyl-6-{[(3S)-1-propanoylpyrrolidin-3-yl]amino}-9H-purin-8-yl)pyridin-3-yl]propan-2-ol]
1.1 nM | >10 | CCn1ncc(-c2nc3c(N[C@H]4CCN(C(=O)OC(C)(C)C)C4)ncnc3n2CC)c1C [Compound 1-14, tert-butyl (3S)-3-{[9-ethyl-8-(1-ethyl-5-methyl-1H-pyrazol-4-yl)-9H-purin-6-yl]amino}pyrrolidine-1-carboxylate]
